Measured values as given in US11903955B2, “Methods of treating heart failure with reduced ejection fraction” (ASTRAZENECA AB, priority 2019, dated 2024).
Where two headings read alike, the source gives them in different places.

Test system: patients with chronic heart failure with reduced ejection fraction (LVEF ≤40%)
Settings: for Any serious adverse event (including death), % of patients / Any serious adverse event (including death), No. of patients: safety population
From the text: All the patients provided written informed consent and entered a 14-day enrollment period during which the trial inclusion and exclusion criteria were checked and baseline information gathered, including findings from clinical examination and laboratory measurements. […] Investigators used an interactive voice or web response system to obtain treatment assignment. Randomization was stratified based on a diagnosis of type 2 diabetes, defined as either an established diagnosis or a HbA1c level of 6.5% or greater (≥48 mmol/mol) confirmed in a central laboratory at screening. Patients were evaluated at 14 days and 60 days after randomization, with a focus on assessment of heart failure and volume status, adverse events, and checking renal function and potassium. Further study visits took place at 4 months and at 4-month intervals thereafter. The protocol required that study drug be permanently discontinued if pregnancy or diabetic ketoacidosis occurred.
KCCQ total symptom score was analyzed as a composite rank-based endpoint, incorporating patient vital status at 8 months along with change in score from baseline to 8 months in surviving patients, using the rank analysis of covariance method, with a corresponding win ratio used to estimate the magnitude of treatment effect.^17 The consistency of the treatment effect among 14 prespecified subgroups were assessed. The prespecified safety analyses included: serious adverse events; adverse events associated with discontinuation of study treatment; “adverse events of interest” i.e., volume depletion, renal events, major hypoglycemic events, bone fractures, diabetic ketoacidosis, amputations; Fournier's gangrene; and laboratory findings of note. […] Fisher's exact test was used to compare rates of adverse events. Analyses were performed using Stata, version 15 (College Station Tex., USA) and R version 3.5.1 (R Foundation for Statistical Computing, Vienna, Austria).

## CCOc1ccc(Cc2cc([C@@H]3O[C@H](CO)[C@@H](O)[C@H](O)[C@H]3O)ccc2Cl)cc1 [Dapagliflozin, dapagliflozin]
No T2DM (N = 1295)
  Any serious adverse event (including death), % of patients: (34.6) %
  Any serious adverse event (including death), No. of patients: 448 patients
T2DM (N = 1073)
  Any serious adverse event (including death), % of patients: (41.7) %
  Any serious adverse event (including death), No. of patients: 447 patients
human, in vivo
  Adverse events of interest: Fournier gangrene, % of patients: (0) %
  Adverse events of interest: Fournier gangrene, No. of patients: 0 patients
  Adverse events of interest: Fracture, % of patients: (2.1) %
  Amputation, No. (%): 13 (0.5) No. (%)
  Diabetic Ketoacidosis, No. (%): 3 (0.1) No. (%)
  Discontinuation of study drug due to adverse event, No. (%): 111 (4.7) No. (%)
  Fournier gangrene, No. (%): 0 (0) No. (%)
  Fracture, No. (%): 49 (2.1) No. (%)
  Major hypoglycemia, No. (%): 4 (0.2) No. (%)
  Serious adverse events related to volume depletion, patients (%): 29 dapagliflozin treated patients (1.2%) patients (%)
  Serious renal adverse events, patients (%): 38 dapagliflozin treated patients (1.6%) patients (%)
In vivo
  Fournier gangrene, No. (%): No case
  amputation, cases: twelve
  amputation, patients: one
Safety population n = 2368
  Any serious adverse event (including death), No. (%): 895 (37.8) No. (%)
